Results on 19 compounds are retold here after patent publication US20120252796A1, “COMPOUNDS FOR THE TREATMENT OF DYSLIPIDEMIA AND RELATED DISEASES” (priority 2009, published 2012).

Broadly, the inhibition is the drop in the measured response relative to a control, in per cent. A low value points to a response near the control.

This assay concerns the target PCSK9 (Homo sapiens, UniProt Q8NBP7). Description: PCSK9-LDLR in vitro Binding Assay (ELISA). The settings on record: for inhibition at 5 µM: Concentration 5 μM. The protocol: The PCSK9-LDLR in vitro Binding Assay is a quantitative solid phase binding assay between PCSK9 and recombinant LDLR. Plates were pre-coated with a recombinant LDLR-AB domain, which binds PCSK9. Test compound at different concentration was added to the PCSK9 and added to LDLR immobilized on the wells. The amount of bound PCSK9 is measured by binding it with biotinylated anti-His-tag monoclonal antibody, followed by binding with horseradish peroxidase conjugated streptavidin substrate. The color was quantified by ELISA reader at […] which reflects the relative amount of PCSK9 that binds to LDLR in presence and absence of the inhibitor. EC50 values were calculated by nonlinear regression analysis using graph pad prism software. Each concentration point represents values in duplicates.
A general note: An ELISA detects its analyte on a solid surface through an enzyme-linked reagent.

Sequence of PCSK9 (Q8NBP7 153-692): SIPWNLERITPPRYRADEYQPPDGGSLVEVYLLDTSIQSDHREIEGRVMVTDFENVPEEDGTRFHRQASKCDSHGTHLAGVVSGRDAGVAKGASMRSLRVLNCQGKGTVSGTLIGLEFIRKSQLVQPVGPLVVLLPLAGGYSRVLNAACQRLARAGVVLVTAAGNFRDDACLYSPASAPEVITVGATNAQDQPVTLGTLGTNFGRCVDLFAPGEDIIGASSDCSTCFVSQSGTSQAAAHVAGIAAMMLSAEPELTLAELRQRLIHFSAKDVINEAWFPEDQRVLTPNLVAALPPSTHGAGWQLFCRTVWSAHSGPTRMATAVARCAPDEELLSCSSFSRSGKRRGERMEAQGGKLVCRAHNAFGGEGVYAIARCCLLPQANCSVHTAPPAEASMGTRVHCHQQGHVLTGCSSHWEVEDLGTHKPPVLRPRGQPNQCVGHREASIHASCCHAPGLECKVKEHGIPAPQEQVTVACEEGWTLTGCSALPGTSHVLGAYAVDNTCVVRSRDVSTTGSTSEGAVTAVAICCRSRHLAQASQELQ
Sequence of PCSK9 (Q8NBP7 31-152 partner limits assumed): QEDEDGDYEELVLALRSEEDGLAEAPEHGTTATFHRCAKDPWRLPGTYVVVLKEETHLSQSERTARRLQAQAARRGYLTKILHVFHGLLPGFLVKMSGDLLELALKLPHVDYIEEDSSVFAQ

Consider `Cc1oc(-c2ccncc2)nc1CC1COC(C)(C(=O)NO)OC1` (stereo not drawn) [Example 81, N-hydroxy-2-methyl-5-t-((5-methyl-2-(pyridin-4-yl)oxazol-4-yl)methyl)-1,3-dioxane-2-carboxamide], for which the “% Inhibition PCSK9” value reads like this: (Concentration 1 μM, 1 µM) 7%; (Concentration 10 μM, 10 µM) 12%; (Concentration 100 μM, 100 µM) 23%.
In the same order, the values of `Cc1ccc(-c2nc(CC3COC(C)(C(=O)NCC4CCOCC4)OC3)c(C)o2)s1` (stereo not drawn) [Example 75, 2-methyl-5-t-((5-methyl-2-(5-methylthiophen-2-yl)oxazol-4-yl)methyl)-N—((tetrahydro-2H-pyran-4-yl)methyl)-1,3-dioxane-2-carboxamide] are 15%, 11% and 20%.
With `Cc1oc(-c2ccccc2)nc1CC1COC(C)(C(=O)NOCc2ccccc2)OC1` (stereo not drawn) [Example 1, N-(benzyloxy)-2-methyl-5-((5-methyl-2-phenyloxazol-4-yl)methyl)-1,3-dioxane-2-carboxamide], the inhibition at 5 µM is 25%. This compound gave an inhibition at 10 µM (Concentration 10 μM) of 30%. Further, the inhibition at 100 µM (Concentration 100 μM) was found to be 32%.
As to `Cc1oc(-c2ccccc2)nc1CCC1COC(C)(C(=O)NO)OC1` (stereo not drawn) [Example 35, N-hydroxy-2-methyl-5-c-(2-(5-methyl-2-phenyloxazol-4-yl)ethyl)-1,3-dioxane-2-carboxamide], the “% Inhibition PCSK9” value reads like this: (Concentration 1 μM, 1 µM) 18%; (Concentration 10 μM) 19%; (Concentration 100 μM, 100 µM) 19%.
With `Cc1oc(-c2ccccc2)nc1CC1COC(C)(C(=O)NCC(=O)NCC2CCOCC2)OC1` (stereo not drawn) [Example 25, 2-methyl-5-c-((5-methyl-2-phenyloxazol-4-yl)methyl)-N-(2-oxo-2-(((tetrahydro-2H-pyran-4-yl)methyl)amino)methyl)-1,3-dioxane-2-carboxamide], the “% Inhibition PCSK9” value (Concentration 10 μM) is recorded as 15% and the “% Inhibition PCSK9” value (Concentration 100 μM) was found to be 16%.
In the same order, the values of `Cc1oc(-c2ccccc2)nc1CCC1COC(C)(C(=O)N2CCS(=O)(=O)CC2)OC1` (stereo not drawn) [Example 46, (1,1-dioxidothiomorpholino)(2-methyl-5-c-(2-(5-methyl-2-phenyloxazol-4-yl)ethyl)-1,3-dioxan-2-yl)methanone] are 12% and 18%.
For `Cc1ccc(-c2nc(CC3COC(C)(C(=O)NO)OC3)c(C)o2)cc1` (stereo not drawn) [Example 61, N-hydroxy-2-methyl-5-t-((5-methyl-2-(p-tolyl)oxazol-4-yl)methyl)-1,3-dioxane-2-carboxamide], the “% Inhibition PCSK9” value (Concentration 10 μM, 10 µM) is on record as 21% and the “% Inhibition PCSK9” value (Concentration 100 μM, 100 µM) was 32%.
With `Cc1ccc(-c2nc(CC3COC(C)(C(=O)NCC4CCOCC4)OC3)c(C)o2)s1` (stereo not drawn) [Example 74, 2-methyl-5-c-((5-methyl-2-(5-methylthiophen-2-yl)oxazol-4-yl)methyl)-N—((tetrahydro-2H-pyran-4-yl)methyl)-1,3-dioxane-2-carboxamide], the “% Inhibition PCSK9” value by setting is: (Concentration 1 μM, 1 µM) 4%; (Concentration 10 μM, 10 µM) 15%; (Concentration 100 μM, 100 µM) 27%.
Regarding `Cc1oc(-c2ccccc2)nc1CC1COC(C)(C(=O)NCC(=O)N2CCCCC2)OC1` (stereo not drawn) [Example 22, 2-methyl-5-c-((5-methyl-2-phenyloxazol-4-yl)methyl)-N-(2-oxo-2-(piperidin-1-yl)ethyl)-1,3-dioxane-2-carboxamide], the “% Inhibition PCSK9” value by setting is: (Concentration 10 μM) 25%; (Concentration 100 μM) 17%.
In the case of `CC1(C(=O)NO)OCC(CCCn2c3ccccc3c3ccccc32)CO1` (stereo not drawn) [Example 96, 5-c-(3-(9H-carbazol-9-yl)propyl)-N-hydroxy-2-methyl-1,3-dioxane-2-carboxamide], for the setting “Concentration 10 μM”, the “% Inhibition PCSK9” value stood at 10%.
Turning to “(2-methyl-5-c-(2-(5-methyl-2-phenyloxazol-4-yl)ethyl)-1,3-dioxan-2-yl)(piperidin-1-yl)methanone [Example 44]”, the “% Inhibition PCSK9” value by setting is: (10 µM) 14%; (100 µM) 25%.
With `Cc1ccc(-c2nc(CC3COC(C)(C(=O)N4CCOCC4)OC3)c(C)o2)cc1` (stereo not drawn) [Example 66, (2-methyl-5-c-((5-methyl-2-(p-tolyl)oxazol-4-yl)methyl)-1,3-dioxan-2-yl)(morpholino)methanone], the “% Inhibition PCSK9” value is, setting by setting: (Concentration 1 μM, 1 µM) 23%; (Concentration 10 μM, 10 µM) 25%; (Concentration 100 μM, 100 µM) 31%.
Regarding `Cc1oc(-c2ccncc2)nc1CC1COC(C)(C(=O)NCC(=O)NCC2CCOCC2)OC1` (stereo not drawn) [Example 88, 2-methyl-5-c-((5-methyl-2-(pyridin-4-yl)oxazol-4-yl)methyl)-N-(2-oxo-2-(((tetrahydro-2H-pyran-4-yl)methyl)amino)ethyl)-1,3-dioxane-2-carboxamide], the “% Inhibition PCSK9” value is 10% (Concentration 10 μM, 10 µM) and 15% (Concentration 100 μM, 100 µM).
For `CC(=O)C(Cc1ccccc1)NC(=O)C1(C)OCC(CCc2nc(-c3ccccc3)oc2C)CO1` (stereo not drawn) [Example 54, 2-methyl-5-(2-(5-methyl-2-phenyloxazol-4-yl)ethyl)-N-(3-oxo-1-phenylbutan-2-yl)-1,3-dioxane-2-carboxamide], where the note is “Concentration 10 μM”, testing at 10 µM gave an inhibition of 21%. The compound further registered an inhibition at 100 µM (Concentration 100 μM) of 29%.
As for `Cc1oc(-c2ccccc2)nc1CCC1COC(C)(C(=O)NCC2CCOCC2)OC1` (stereo not drawn) [Example 38, 2-methyl-5-c-(2-(5-methyl-2-phenyloxazol-4-yl)ethyl)-N—((tetrahydro-2H-pyran-4-yl)methyl)-1,3-dioxane-2-carboxamide], the “% Inhibition PCSK9” value is 14% (Concentration 10 μM) and 21% (Concentration 100 μM).
Turning to `Cc1ccc(-c2nc(CC3COC(C)(C(=O)N4CCOCC4)OC3)c(C)o2)s1` (stereo not drawn) [Example 76], the “% Inhibition PCSK9” value is reported as 6% (Concentration 1 μM); 17% (Concentration 10 μM, 10 µM); 27% (Concentration 100 μM, 100 µM).
`Cc1oc(-c2ccccc2)nc1CC1COC(C)(C(=O)N2CCOCC2)OC1` (stereo not drawn) [Example 11, (2-methyl-5-((5-methyl-2-phenyloxazol-4-yl)methyl)-1,3-dioxan-2-yl)(morpholino)methanone] yielded an inhibition at 5 µM of 20%. For the same compound, for the setting “Concentration 10 μM”, 10 µM produced 30% inhibition. Besides, the inhibition at 100 µM (Concentration 100 μM) stood at 44%.
Consider `Cc1oc(-c2ccncc2)nc1CC1COC(C)(C(=O)NCC(=O)NCC2CCOCC2)OC1` (stereo not drawn) [Example 89, 2-methyl-5-t-((5-methyl-2-(pyridin-4-yl)oxazol-4-yl)methyl)-N-(2-oxo-2-(((tetrahydro-2H-pyran-4-yl)methyl)amino)ethyl)-1,3-dioxane-2-carboxamide], for which the “% Inhibition PCSK9” value reads like this: (Concentration 10 μM, 10 µM) 7%; (Concentration 100 μM, 100 µM) 10%.
For the compound `Cc1oc(-c2ccccc2)nc1CC1COC(C)(C(=O)NCC2CCOCC2)OC1` (stereo not drawn) [Example 9, 2-methyl-5-c-((5-methyl-2-phenyloxazol-4-yl)methyl)-N—((tetrahydro-2H-pyran-4-yl)methyl)-1,3-dioxane-2-carboxamide], the “% Inhibition PCSK9” value (Concentration 10 μM) worked out at 15% and the “% Inhibition PCSK9” value (Concentration 100 μM) came out at 12%.
